According to PubChem BioAssay AID1918943 (Molecular Pharmacology Branch, DTP, NCI, 2023):
“And” between values parts separate entries of the source, which are not always exact repeats. Identical values can stand only once. Blank lines part the entries; values can stand above or below the molecule they belong to.

System: 855422-203-R-J1-PDC complex spheroid viability
Assay: Anticancer human tumor 855422-203-R-J1-PDC patient-derived bladder carcinoma cell line growth inhibition
Conditions: for viability, T/C: stronger effect = lower value
Outline: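 Multicellular complex spheroids of tumor cells with human endothelial cells (HUVEC) and mesenchymal stem cells; the LSD1 inhibitor iadademstat was combined with standard-of-care or investigational agents. Top concentration at or near clinical Cmax, half-log dilutions; final DMSO ≤0.25%.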

[1] = curve of first compound, second compound 0.1 µM
[2] = curve of first compound, second compound 0.316 µM
[3] = curve of first compound, second compound 1 µM
[4] = curve of first compound, second compound 3.16 µM
[5] = curve of first compound, second compound 10 µM
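Note: drug exposure lasted 7 days starting on day 3 after seeding.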
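Throughout, for viability, T/C: luminescence viability as percent of DMSO vehicle wells = 100%.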

IC50 (curve of compound): > 10000 nM
SMILES: CC(C)c1c(-c2ccccc2)nc2c(C#N)c[nH]n2c1=O
viability, T/C (compound 0.0316 µM): 98.3% and 101%
viability, T/C (compound 0.1 µM): 104% and 106%
viability, T/C (compound 0.316 µM): 96.1% and 107%
viability, T/C (compound 1 µM): 104% and 99.9%
viability, T/C (compound 3.16 µM): 94.5% and 99.2%
viability, T/C (compound 10 µM): 95.4% and 90.9%

SMILES: O=C(C=Cc1cccc(S(=O)(=O)Nc2ccccc2)c1)NO + NC1CCC(NC2CC2c2ccccc2)CC1
IC50 [1]: 452 nM
IC50 [2]: 468 nM
IC50 [3]: 296 nM
IC50 [4]: 343 nM
IC50 [5]: 357 nM
viability, T/C (second compound 0.1 µM, first compound 0.00949 µM): 88.3%
viability, T/C (second compound 0.1 µM, first compound 0.03 µM): 88.7%
viability, T/C (second compound 0.1 µM, first compound 0.0949 µM): 91.3%
viability, T/C (second compound 0.1 µM, first compound 0.3 µM): 68.9%
viability, T/C (second compound 0.1 µM, first compound 0.949 µM): 15.2%
viability, T/C (second compound 0.1 µM, first compound 3 µM): 0.2%
viability, T/C (second compound 0.316 µM, first compound 0.00949 µM): 96.1%
viability, T/C (second compound 0.316 µM, first compound 0.03 µM): 88.6%
viability, T/C (second compound 0.316 µM, first compound 0.0949 µM): 80.7%
viability, T/C (second compound 0.316 µM, first compound 0.3 µM): 71.8%
viability, T/C (second compound 0.316 µM, first compound 0.949 µM): 17.4%
viability, T/C (second compound 0.316 µM, first compound 3 µM): 0.2%
viability, T/C (second compound 1 µM, first compound 0.00949 µM): 98%
viability, T/C (second compound 1 µM, first compound 0.03 µM): 90.1%
viability, T/C (second compound 1 µM, first compound 0.0949 µM): 67.7%
viability, T/C (second compound 1 µM, first compound 0.3 µM): 59.2%
viability, T/C (second compound 1 µM, first compound 0.949 µM): 13.4%
viability, T/C (second compound 1 µM, first compound 3 µM): 0.17%
viability, T/C (second compound 3.16 µM, first compound 0.00949 µM): 94%
viability, T/C (second compound 3.16 µM, first compound 0.03 µM): 92%
viability, T/C (second compound 3.16 µM, first compound 0.0949 µM): 81.6%
viability, T/C (second compound 3.16 µM, first compound 0.3 µM): 57.4%
viability, T/C (second compound 3.16 µM, first compound 0.949 µM): 7.23%
viability, T/C (second compound 3.16 µM, first compound 3 µM): 0.14%
viability, T/C (second compound 10 µM, first compound 0.00949 µM): 90.8%
viability, T/C (second compound 10 µM, first compound 0.03 µM): 82.7%
viability, T/C (second compound 10 µM, first compound 0.0949 µM): 78.9%
viability, T/C (second compound 10 µM, first compound 0.3 µM): 58.5%
viability, T/C (second compound 10 µM, first compound 0.949 µM): 5.21%
viability, T/C (second compound 10 µM, first compound 3 µM): 0.59%

SMILES: CC(C)CC(NC(=O)CNC(=O)c1cc(Cl)ccc1Cl)B1OC(=O)CC(CC(=O)O)(C(=O)O)O1 (centres undefined) + NC1CCC(NC2CC2c2ccccc2)CC1
IC50 [1]: 1.8 nM
IC50 [2]: 1.7 nM
IC50 [3]: 1.67 nM
IC50 [4]: 1.63 nM
IC50 [5]: 1.52 nM
viability, T/C (second compound 0.1 µM, first compound 0.000316 µM): 95.9%
viability, T/C (second compound 0.1 µM, first compound 0.001 µM): 89.3%
viability, T/C (second compound 0.1 µM, first compound 0.00316 µM): 12.2%
viability, T/C (second compound 0.1 µM, first compound 0.01 µM): 1.62%
viability, T/C (second compound 0.1 µM, first compound 0.0316 µM): 0.03%
viability, T/C (second compound 0.1 µM, first compound 0.1 µM): 0.09%
viability, T/C (second compound 0.316 µM, first compound 0.000316 µM): 100%
viability, T/C (second compound 0.316 µM, first compound 0.001 µM): 90.4%
viability, T/C (second compound 0.316 µM, first compound 0.00316 µM): 3.11%
viability, T/C (second compound 0.316 µM, first compound 0.01 µM): 1.91%
viability, T/C (second compound 0.316 µM, first compound 0.0316 µM): 0.02%
viability, T/C (second compound 0.316 µM, first compound 0.1 µM): 0.09%
viability, T/C (second compound 1 µM, first compound 0.000316 µM): 91.9%
viability, T/C (second compound 1 µM, first compound 0.001 µM): 87%
viability, T/C (second compound 1 µM, first compound 0.00316 µM): 3.87%
viability, T/C (second compound 1 µM, first compound 0.01 µM): 0.69%
viability, T/C (second compound 1 µM, first compound 0.0316 µM): 0.02%
viability, T/C (second compound 1 µM, first compound 0.1 µM): 0.1%
viability, T/C (second compound 3.16 µM, first compound 0.000316 µM): 89.8%
viability, T/C (second compound 3.16 µM, first compound 0.001 µM): 85.3%
viability, T/C (second compound 3.16 µM, first compound 0.00316 µM): 2.25%
viability, T/C (second compound 3.16 µM, first compound 0.01 µM): 0.69%
viability, T/C (second compound 3.16 µM, first compound 0.0316 µM): 0.04%
viability, T/C (second compound 3.16 µM, first compound 0.1 µM): 0.1%
viability, T/C (second compound 10 µM, first compound 0.000316 µM): 77.6%
viability, T/C (second compound 10 µM, first compound 0.001 µM): 76.9%
viability, T/C (second compound 10 µM, first compound 0.00316 µM): 2.8%
viability, T/C (second compound 10 µM, first compound 0.01 µM): 0.29%
viability, T/C (second compound 10 µM, first compound 0.0316 µM): 0.12%
viability, T/C (second compound 10 µM, first compound 0.1 µM): 3.15%

IC50 (curve of compound): 5550 nM and 5570 nM
SMILES: CC1(C)CCC(CN2CCN(c3ccc(C(=O)NS(=O)(=O)c4ccc(NCC5CCOCC5)c([N+](=O)[O-])c4)c(Oc4cnc5[nH]ccc5c4)c3)CC2)=C(c2ccc(Cl)cc2)C1
viability, T/C (compound 0.0316 µM): 102% and 97.3%
viability, T/C (compound 0.1 µM): 105% and 94.6%
viability, T/C (compound 0.316 µM): 104% and 110%
viability, T/C (compound 1 µM): 103% and 107%
viability, T/C (compound 3.16 µM): 80.6% and 83.9%
viability, T/C (compound 10 µM): 17.9% and 15.2%
